A word on the IC50: it is the midpoint of a concentration-inhibition curve.

For assay [1], the target named is T1, HBO-KAT7 (Homo sapiens, UniProt O95251).
T1 construct: encoding amino acid residues 325 to 611 (Uniprot 095251-1) of human KAT7; made in house; host or cells: E. coli BL21 DE3 RIL
Kind of assay: Acetyltransferase biochemical assay (AlphaScreen), KAT7. To be noted: Table 3 (HBO-KAT7); 0.4 μM Acetyl coenzyme A, histone H3.1, 40 nM enzyme. (Alpha assays give light when donor and acceptor beads are brought close together.)

Assay [2] has as its target T2, TIP60-KAT5 (Homo sapiens, UniProt Q92993).
T2 construct: encoding amino acid residues 2 to 461 (Uniprot Q92993-2) of human KAT5 isoform; made in house; host or cells: E. coli BL21 DE3
Kind of assay: Acetyltransferase biochemical assay (AlphaScreen), KAT5. The following applies: Table 1 (TIP60-KAT5); 0.4 μM Acetyl coenzyme A, histone H4, 10 nM enzyme.

The target in assay [3] is T3, MOF-KAT8 (Homo sapiens, UniProt Q9H7Z6).
T3 sequence (Q9H7Z6 177-447): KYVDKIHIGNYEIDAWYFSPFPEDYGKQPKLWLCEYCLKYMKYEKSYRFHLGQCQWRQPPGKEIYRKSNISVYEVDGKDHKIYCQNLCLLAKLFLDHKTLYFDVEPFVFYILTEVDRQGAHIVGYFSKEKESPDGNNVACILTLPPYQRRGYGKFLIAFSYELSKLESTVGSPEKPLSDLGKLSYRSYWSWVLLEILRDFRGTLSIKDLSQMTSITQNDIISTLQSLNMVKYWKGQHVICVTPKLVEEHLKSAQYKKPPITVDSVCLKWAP
Kind of assay: Revised Acetyltransferase Biochemical Assay, KAT8.

For assay [4], the target named is T1, HBO-KAT7. Description: Revised Acetyltransferase Biochemical Assay, KAT7. The following applies: Table 9 (HBO-KAT7), 1 μM Acetyl coenzyme A.
The subject of assay [5] is histone H3K23 acetylation (KATE mediated) in U2OS cells. Description: Histone H3 Lysine 23 Acetylation Biomarker Assay (U2OS). It is filed as cell-based. The following applies: Homo sapiens, 96 well, 24 hours incubation. The protocol: Compounds may be tested for their ability to inhibit acetylation of the histone H3K23 marker, which is KATE mediated, in the following assay:
The cell line U2OS was seeded at a density of 9,000 cells per well in 96 well optical quality tissue culture plates in RPMI medium and 10% foetal bovine serum, and allowed to adhere for 24 hours under standard culture conditions (37 degree Celsius, 5% CO2). At the end of this period the medium was aspirated. Compound dilutions prepared in DMSO were added to medium, with negative control wells reserved for treatment with DMSO only and 100% inhibition positive controls receiving a potent inhibitor compound (e.g. cas 2055397-28-7, benzoic acid, 3-fluoro-5-(2-pyridinyl)-, 2-[(2-fluorophenyl)sulfonyl]hydrazide) (Baell, J., Nguyen, H. N., Leaver, D. J., Cleary, B. L., Lagiakos, H. R., Sheikh, B. N., Thomas. T. J., Aryl sulfonohydrazides, WO2016198507A1, 2016) at 10 μM concentration and 200 μL transferred to the cells. After incubation for 24 hours, the cells were fixed with 3.7% formaldehyde in PBS for 20 minutes at room temperature, washed (5×5 minutes) with phosphate buffer saline containing 0.1% Tween 20 and blocked with Odyssey blocking buffer (LI-COR, Lincoln, Nebr.) containing 0.1% TritonX100. Anti-H3K23ac specific antibody (Abcam ab177275) in Odyssey blocking buffer containing 0.1% Tween 20 was added and incubated for 16 hours at 4 degree Celsius. After washing (as above), a secondary antibody labelled with Alexa647 dye (LifeTechnologies) and Hoechst 33342 (1 μg/mL, SigmaAldrich) were added for 1 hour incubation. Plates were washed as previously and read on a PerkinElmer Phenix high content imaging platform. Using a Columbus image analysis pipeline, individual nuclei were located by Hoechst 33342 stain and the acetylation level was calculated from the Alexa647-related intensity in the same area. The resulting mean intensity per cell was directly converted to percent inhibition relative to controls on the same plate and the data fitted against a four-parameter logistic model to determine the 50% inhibitory concentration (IC50).

In assay [6] the target is T2, TIP60-KAT5. Kind of assay: Revised Acetyltransferase Biochemical Assay, KAT5. The following applies: 10 nM KAT5, 1 μM AcCoA, 100 nM histone H4, 90 min.
Assay [7] concerns the target T4, MOZ-KAT6A (Homo sapiens, UniProt Q92794, A567V).
T4 construct: encoding amino acid residues 507 to 778 (Uniprot Q92794-1) of human KAT6A; made in house; host or cells: E. coli BL21 DE3
Kind of assay: Revised Acetyltransferase Biochemical Assay, KAT6A. The following applies: Table 8 (MOZ-KAT6A), 1 μM Acetyl coenzyme A.

Assay [8] has as its target T4, MOZ-KAT6A. Description: Acetyltransferase biochemical assay (AlphaScreen), KAT6A. The following applies: Table 2 (MOZ-KAT6A); 10 μM Acetyl coenzyme A, histone H3.1, 5 nM enzyme.
Assay [9] deals with T3, MOF-KAT8. Description: Acetyltransferase biochemical assay (AlphaScreen), KAT8. To be noted: Table 4 (MOF-KAT8); 0.4 μM Acetyl coenzyme A, histone H4, 20 nM enzyme.
Assay [10] concerns histone H3 Lysine 14 acetylation (HBO1 mediated) in U2OS cells. Kind of assay: Histone H3 Lysine 14 Acetylation Biomarker Assay (384-well, U2OS). To be noted: Homo sapiens, serum free medium, 24 hours incubation. It is filed as cell-based. The protocol: Compounds may be tested for their ability to inhibit acetylation of the histone H3 Lysine 14 (which is HBO1 mediated) marker in the following assay:
The cell line U2OS was seeded at a density of 3,000 cells per well in 384-well optical quality tissue culture plates in RPMI medium supplemented with 10% foetal bovine serum and 10 mM Hepes. The cells were allowed to adhere for 24 hours under standard culture conditions (37 degree Celsius, 5% CO2). At the end of this period the cells were washed with serum free medium. Compound dilutions prepared in DMSO were added to the serum free medium, with negative control wells reserved for treatment with DMSO only and 100% inhibition positive controls receiving a potent inhibitor compound (e.g. (Z)-4-fluoro-N-((3-hydroxyphenyl)sulfonyl)-5-methyl-[1,1′-biphenyl]-3-carbohydrazonic acid) at 10 μM concentration. After incubation for 24 hours, the cells were fixed with 4% formaldehyde in PBS for 15 minutes at room temperature, washed with phosphate buffer saline and blocked with blocking buffer containing 0.2% TritonX100 and 2% BSA. Anti-H3K14ac specific antibody (Cell Signalling Technologies) in blocking buffer was added and incubated overnight at 4 degree Celsius. After washing, a secondary antibody labelled with AlexaFluor 488 dye (ThermoFisher) and Hoechst 33342 (1 μg/mL, Life Technologies) were added for 2 hours incubation at room temperature. Plates were washed and read on a
PerkinElmer Opera HCS high content imaging platform. Using a Columbus image analysis pipeline, individual nuclei were located by Hoechst 33342 stain and the acetylation level was calculated from the AlexaFluor 488-related intensity in the same area. The resulting mean intensity per cell was converted to percent inhibition relative to controls on the same plate and the data fitted against a four-parameter logistic model to determine the 50% inhibitory concentration (IC50).

Assay [11] relates to histone H2A.Z Lysine 7 acetylation (TIP60 mediated) in U2OS cells. Kind of assay: H2A.Z Lysine 7 Acetylation Biomarker Assay (384-well, U2OS). In kind it is cell-based. The following applies: Homo sapiens, serum free medium, 24 hours incubation. The protocol: Compounds may be tested for their ability to inhibit the histone H2A.Z Lysine 7 acetylation marker (which is TIP60 mediated) in the following assay:
The cell line U2OS was seeded at a density of 3,000 cells per well in 384-well optical quality tissue culture plates in RPMI medium supplemented with 10% foetal bovine serum and 10 mM Hepes. The cells were allowed to adhere for 24 hours under standard culture conditions (37 degree Celsius, 5% CO2). At the end of this period the cells were washed with serum free medium. […] After incubation for 24 hours, the cells were fixed with 4% formaldehyde in PBS for 15 minutes at room temperature, washed with phosphate buffer saline and blocked with blocking buffer containing 0.2% TritonX100 and 2% BSA. Anti-H2A.ZK7ac specific antibody (Abcam) in blocking buffer was added and incubated overnight at 4 degree Celsius. After washing, a secondary antibody labelled with AlexaFluor 488 dye (ThermoFisher) and Hoechst 33342 (1 μg/mL, Life Technologies) were added for 2 hours incubation at room temperature. Plates were washed and read on a PerkinElmer Opera HCS high content imaging platform. Using a Columbus image analysis pipeline, individual nuclei were located by Hoechst 33342 stain and the acetylation level was calculated from the AlexaFluor 488-related intensity in the same area. The resulting mean intensity per cell was converted to percent inhibition relative to controls on the same plate and the data fitted against a four-parameter logistic model to determine the 50% inhibitory concentration (IC50).

T2 sequence (Q92993 2-461 isoform Q92993-2): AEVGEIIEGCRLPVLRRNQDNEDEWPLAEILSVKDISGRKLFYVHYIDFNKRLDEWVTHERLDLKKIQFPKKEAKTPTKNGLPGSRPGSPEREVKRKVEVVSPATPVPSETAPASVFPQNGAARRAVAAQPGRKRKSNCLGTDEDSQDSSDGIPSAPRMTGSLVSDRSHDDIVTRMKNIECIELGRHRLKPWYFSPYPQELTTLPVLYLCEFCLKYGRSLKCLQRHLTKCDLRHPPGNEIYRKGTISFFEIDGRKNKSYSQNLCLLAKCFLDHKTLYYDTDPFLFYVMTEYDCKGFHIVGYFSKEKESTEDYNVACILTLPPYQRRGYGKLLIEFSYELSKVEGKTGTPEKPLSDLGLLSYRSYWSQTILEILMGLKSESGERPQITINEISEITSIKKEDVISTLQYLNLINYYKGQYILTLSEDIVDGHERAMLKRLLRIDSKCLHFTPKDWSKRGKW
T4 sequence (Q92794 507-778 A567V limits assumed): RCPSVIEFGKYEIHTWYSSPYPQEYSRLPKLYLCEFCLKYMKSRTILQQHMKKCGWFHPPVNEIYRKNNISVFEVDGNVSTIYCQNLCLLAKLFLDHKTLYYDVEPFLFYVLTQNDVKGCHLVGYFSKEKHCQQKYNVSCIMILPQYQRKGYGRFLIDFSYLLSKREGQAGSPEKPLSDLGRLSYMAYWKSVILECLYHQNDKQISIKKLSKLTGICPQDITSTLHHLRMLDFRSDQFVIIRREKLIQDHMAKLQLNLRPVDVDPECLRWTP
T1 sequence (O95251 with tags, fused parts or gaps): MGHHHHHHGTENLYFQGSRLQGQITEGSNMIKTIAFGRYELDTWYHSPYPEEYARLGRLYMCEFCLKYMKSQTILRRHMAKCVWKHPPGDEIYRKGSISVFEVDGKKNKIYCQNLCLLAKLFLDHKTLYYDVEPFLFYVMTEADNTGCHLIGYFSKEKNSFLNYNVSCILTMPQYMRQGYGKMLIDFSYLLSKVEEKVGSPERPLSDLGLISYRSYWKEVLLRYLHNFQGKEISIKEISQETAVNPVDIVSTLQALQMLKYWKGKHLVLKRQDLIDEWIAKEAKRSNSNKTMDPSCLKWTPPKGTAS

Take `O=C(NCC(O)c1ccccc1OC(F)F)C1=Nc2ccc(I)cc2S(=O)(=O)N1` (centres unmarked) [Example 57, N-(2-(2-(difluoromethoxy)phenyl)-2-hydroxyethyl)-7-iodo-2H-benzo[e][1,2,4]thiadiazine-3-carboxamide 1,1-dioxide]: the concentration for half-maximal inhibition (IC50) in assay [1] is 2.53 µM; in [2], 2.8 µM; in assay [3], 11.3 µM; in assay [4] it was 0.84 µM; in assay [5], above 10 µM; in assay [6], 0.725 µM. Besides, half-maximal inhibition in [7] (IC50) was put at 0.403 µM.

For the molecule `O=C(NCC(c1ccccc1)c1ncco1)C1=Nc2ccncc2S(=O)(=O)N1` (centres unmarked) [Example 97], the IC50 in assay [1] was 49.4 µM; in [2], above 125 µM; in assay [5] it was above 10 µM; in [8], 4 µM; in [6], 26.1 µM; in [7], 0.417 µM.

For the molecule `COc1cccc(C(CNC(=O)C2=Nc3ccc(Br)cc3S(=O)(=O)N2)c2ncco2)c1` (centres unmarked) [Example 188, 7-bromo-N-(2-(3-methoxyphenyl)-2-(oxazol-2-yl)ethyl)-2H-benzo[e][1,2,4]thiadiazine-3-carboxamide 1,1-dioxide], the IC50 is 39.8 µM in assay [9]; 54.3 µM in assay [3]; 0.215 µM in assay [4]; 0.427 µM in assay [10]; 1.44 µM in assay [6]; 0.041 µM in assay [7].

Regarding `CC(O)c1ccc2c(c1)S(=O)(=O)NC(C(=O)NCC(c1ccccc1)c1ncco1)=N2` (centres unmarked) [Example 212, 7-(1-Hydroxyethyl)-N-(2-(oxazol-2-yl)-2-phenylethyl)-2H-benzo[e][1,2,4]thiadiazine-3-carboxamide 1,1-dioxide], the IC50 in assay [9] was 40.8 µM; in [4], 1.09 µM; in assay [10] it was 4.15 µM; in assay [6], 4 µM; in assay [7], 0.241 µM.

`O=C(NCC(CO)c1ccccc1)C1=Nc2ccc(Cl)cc2S(=O)(=O)N1` (centres unmarked) [Example 225, 7-Chloro-N-(3-hydroxy-2-phenylpropyl)-2H-benzo[e][1,2,4]thiadiazine-3-carboxamide 1,1-dioxide]: the IC50 in assay [11] was above 40 µM; in assay [3] it was above 125 µM; in assay [4] it was 1.46 µM; in [10], above 40 µM; in assay [6] it was 5.12 µM; in [7], 0.447 µM.

For `COCC(CNC(=O)C1=Nc2ccc(Cl)cc2S(=O)(=O)N1)c1ccccc1` (centres unmarked) [Example 226, 7-Chloro-N-(3-methoxy-2-phenylpropyl)-2H-benzo[e][1,2,4]thiadiazine-3-carboxamide 1,1-dioxide], the IC50 in [11] was above 40 µM; in assay [3], above 125 µM; in assay [4], 1.93 µM; in assay [10] it was 24.4 µM; in [6], 3.73 µM; in assay [7] it was 0.075 µM.

In the case of `COCc1cnn(-c2ccccc2CCNC(=O)C2=Nc3ccc(I)cc3S(=O)(=O)N2)n1` [Example 239, 7-iodo-N-(2-(4-(methoxymethyl)-2H-1,2,3-triazol-2-yl)phenethyl)-2H-benzo[e][1,2,4]thiadiazine-3-carboxamide 1,1-dioxide], the IC50 in assay [9] was above 125 µM; in assay [3] it was 75.6 µM; in assay [4], 0.686 µM; in assay [10], 19.2 µM; in assay [6], 0.597 µM; in [7] it was 0.017 µM.

With `O=C(NCCc1ccccc1-n1cccn1)C1=Nc2ccc(I)cc2S(=O)(=O)N1` [Example 240, N-(2-(1H-pyrazol-1-yl)phenethyl)-7-iodo-2H-benzo[e][1,2,4]thiadiazine-3-carboxamide 1,1-dioxide], the IC50 stood at 11.2 µM in assay [11]; 62.6 µM in assay [3]; 0.134 µM in assay [4]; 3.32 µM in assay [10]; 0.309 µM in assay [6]; 0.021 µM in assay [7].

Regarding `O=C(NCC(c1ccccn1)n1cccn1)C1=Nc2ccc(Br)cc2S(=O)(=O)N1` (centres unmarked) [Example 244, N-(2-(1H-Pyrazol-1-yl)-2-(pyridin-2-yl)ethyl)-7-bromo-4H-benzo[e][1,2,4]thiadiazine-3-carboxamide 1,1-dioxide], the IC50 in assay [9] is 82.9 µM; in assay [4], 3.83 µM; in [10], above 40 µM; in assay [6], 14.6 µM; in [7] it was 6.83 µM.

The values above are taken from patent US20210380548A1, “Fused [1,2,4]Thiadiazine Derivatives Which Act as KAT Inhibitors of the MYST Family” (CTxT Pty Limited, priority 2017, published 2021).
